Measured values from US9149038B2, “4-amino-6-(heterocyclic)picolinates and 6-amino-2-(heterocyclic)pyrimidine-4-carboxylates and their use as herbicides” (Dow AgroSciences LLC, priority 2013, dated 2015).
Like-named read-outs stand apart in the source and are kept apart here.

Columns and labels:
[1] = system: Key Broadleaf Weed and Crop Species; assay: Post-Emergent Test II: postemergent herbicidal activity, visual rating after 14 d (Table 7); format: in vivo; conditions: post-emergence, 336 h; for pest or weed control at 35 g/ha: 35 g ai/ha; for pest or weed control at 70 g/ha: 70 g ai/ha; for pest or weed control at 140 g/ha: 140 g ai/ha
How it was run: (§1)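 Greenhouse plants at first or second true leaf stage sprayed with compound in acetone/DMSO-based spray solution with crop oil concentrate and Triton X-155 at 187 L/ha, tested at highest rate and ½× to 1/16× dilutions; solvent blank controls. Injury rated visually 0–100% versus untreated plants after 14 d.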

[2] = system: Key Grass and Sedge Weeds as well as Grass Crops; assay: Post-Emergent Test II: postemergent herbicidal activity, visual rating after 14 d (Table 8); format: in vivo; conditions: post-emergence, 336 h; for pest or weed control at 35 g/ha: 35 g ai/ha; for pest or weed control at 70 g/ha: 70 g ai/ha; for pest or weed control at 140 g/ha: 140 g ai/ha
How it was run: as §1

[3] = lambsquarters (Chenopodium album), read-out: Visual Growth Reduction (%) 14 Days After Application CHEAL
[4] = oilseed rape, canola (Brassica napus), read-out: Visual Growth Reduction (%) 14 Days After Application BRSNN
[5] = redroot pigweed (Amaranthus retroflexus), read-out: Visual Growth Reduction (%) 14 Days After Application AMARE
[6] = sunflower (Helianthus annuus), read-out: Visual Growth Reduction (%) 14 Days After Application HELAN
[7] = velvetleaf (Abutilon theophrasti), read-out: Visual Growth Reduction (%) 14 Days After Application ABUTH
[8] = wild poinsettia (Euphorbia heterophylla), read-out: Visual Growth Reduction (%) 14 Days After Application EPHHL
[9] = barnyardgrass (Echinochloa crus-galli), read-out: Visual Growth Reduction (%) 14 Days After Application ECHCG
[10] = giant foxtail (Setaria faberi), read-out: Visual Growth Reduction (%) 14 Days After Application SETFA
[11] = maize, corn (Zea mays), read-out: Visual Growth Reduction (%) 14 Days After Application ZEAMX
[12] = rice (Oryza sativa), read-out: Visual Growth Reduction (%) 14 Days After Application ORYSA
[13] = wheat, spring (Triticum aestivum), read-out: Visual Growth Reduction (%) 14 Days After Application TRZAS
[14] = yellow nutsedge (Cyperus esculentus), read-out: Visual Growth Reduction (%) 14 Days After Application CYPES

| SMILES | pest or weed control at 35 g/ha [1, 3] | pest or weed control at 70 g/ha [1, 3] | pest or weed control at 140 g/ha [1, 3] | pest or weed control at 35 g/ha [1, 4] | pest or weed control at 70 g/ha [1, 4] | pest or weed control at 140 g/ha [1, 4] | pest or weed control at 35 g/ha [1, 5] | pest or weed control at 70 g/ha [1, 5] | pest or weed control at 140 g/ha [1, 5] | pest or weed control at 35 g/ha [1, 6] | pest or weed control at 70 g/ha [1, 6] | pest or weed control at 140 g/ha [1, 6] | pest or weed control at 35 g/ha [1, 7] | pest or weed control at 70 g/ha [1, 7] | pest or weed control at 140 g/ha [1, 7] | pest or weed control at 35 g/ha [1, 8] | pest or weed control at 70 g/ha [1, 8] | pest or weed control at 140 g/ha [1, 8] | pest or weed control at 35 g/ha [2, 9] | pest or weed control at 70 g/ha [2, 9] | further results |
| --- | --- | --- | --- | --- | --- | --- | --- | --- | --- | --- | --- | --- | --- | --- | --- | --- | --- | --- | --- | --- | --- |
| COC(=O)c1nc(-c2cc3c(cc2F)OC(F)(F)O3)c(F)c(N)c1F [Compound 21] | 0 to 29% | 0 to 29% | 0 to 29% | 0 to 29% | 0 to 29% | 0 to 29% | 0 to 29% | 0 to 29% | 0 to 29% | 45 to 59% | 45 to 59% | 60 to 74% | 0 to 29% | 0 to 29% | 0 to 29% | 0 to 29% | 0 to 29% | 0 to 29% | 0 to 29% | 0 to 29% | pest or weed control at 140 g/ha [2, 9]: 0 to 29%; pest or weed control at 35 g/ha [2, 10]: 0 to 29%; pest or weed control at 70 g/ha [2, 10]: 0 to 29%; pest or weed control at 140 g/ha [2, 10]: 60 to 74%; pest or weed control at 35 g/ha [2, 11]: 0 to 29%; pest or weed control at 70 g/ha [2, 11]: 0 to 29%; pest or weed control at 140 g/ha [2, 11]: 45 to 59%; pest or weed control at 35 g/ha [2, 12]: 0 to 29%; pest or weed control at 70 g/ha [2, 12]: 0 to 29%; pest or weed control at 140 g/ha [2, 12]: 0 to 29%; pest or weed control at 35 g/ha [2, 13]: 0 to 29%; pest or weed control at 70 g/ha [2, 13]: 0 to 29%; pest or weed control at 140 g/ha [2, 13]: 0 to 29%; pest or weed control at 35 g/ha [2, 14]: 0 to 29%; pest or weed control at 70 g/ha [2, 14]: 0 to 29%; pest or weed control at 140 g/ha [2, 14]: 0 to 29% |
| CC1(C)Oc2ccc(-c3nc(C(=O)O)c(Cl)c(N)c3F)cc2O1 [Compound 19] | 0 to 29% | 0 to 29% | 0 to 29% | 0 to 29% | 45 to 59% | 60 to 74% | 85 to 94% | 85 to 94% | 85 to 94% | 0 to 29% | 0 to 29% | 30 to 44% | 0 to 29% | 60 to 74% | 60 to 74% | 95 to 100% | 95 to 100% | 95 to 100% | 85 to 94% | 85 to 94% | pest or weed control at 140 g/ha [2, 9]: 95 to 100%; pest or weed control at 35 g/ha [2, 10]: 0 to 29%; pest or weed control at 70 g/ha [2, 10]: 0 to 29%; pest or weed control at 140 g/ha [2, 10]: 0 to 29%; pest or weed control at 35 g/ha [2, 11]: 60 to 74%; pest or weed control at 70 g/ha [2, 11]: 60 to 74%; pest or weed control at 140 g/ha [2, 11]: 60 to 74%; pest or weed control at 35 g/ha [2, 12]: 0 to 29%; pest or weed control at 70 g/ha [2, 12]: 0 to 29%; pest or weed control at 140 g/ha [2, 12]: 0 to 29%; pest or weed control at 35 g/ha [2, 13]: 0 to 29%; pest or weed control at 70 g/ha [2, 13]: 0 to 29%; pest or weed control at 140 g/ha [2, 13]: 0 to 29%; pest or weed control at 35 g/ha [2, 14]: 95 to 100%; pest or weed control at 70 g/ha [2, 14]: 95 to 100%; pest or weed control at 140 g/ha [2, 14]: 95 to 100% |
